The values below come from patent US7285528B2, “Agonists and antagonists of gonadotropin-releasing hormone-2, and use thereof” (priority 2002, dated 2007).

Where a SMILES comes first, the peptide text is derived from it. [ ]: non-standard residue; d: D form. dPhe(4-Cl) = N[C@H](Cc1ccc(Cl)cc1)C(=O)O; d2Nal = N[C@H](Cc1ccc2ccccc2c1)C(=O)O; dCit = NC(=O)NCCC[C@@H](N)C(=O)O; d3Pal = N[C@H](Cc1cccnc1)C(=O)O; pGlu = O=C1CC[C@@H](C(=O)O)N1

For assay [1], the system named is Primate GnRH-2 receptor. The assay can be described thus: c-fos-luc luciferase activation by agonists, CV-1 cells expressing Primate GnRH-2 receptor. It is filed as cell-based, Primates. Particulars: for Log EC50: log of EC50 (negative values), luciferase activation, average of three independent experiments. The procedure: Complimentary DNA (cDNA) for a Primate GnRH-2 receptor was obtained from a CV-1 cell genome. […] Plasmids having Primate GnRH-2 receptors where transfected into CV-1 cells. To assay the activity of the receptor, c-fos-luc where a luciferase gene is fused with a c-fos promoter was co-transfected as a probe gene. After 48 hours from transfection, the cells were treated with GnRH-2 agonists and then the activity of luciferase was assayed (Seong et al., Endocrinology vol 144 2003, 454-466). […] Of the GnRH-2 receptors, [[…]]GnRH-2 performed excellently, showing effects about 3 times that of a wild-type ligand, GnRH-2. […] When analogs where the 5th, 7th, and 8th amino acids of [[…]]GnRH-2 are substituted were used, it was observed that their effects were weaker than [[…]]GnRH-2, and therefore it can be seen that it is important to maintain His, Trp, and Tyr that are found at the 5th, 7th, and 8th positions of GnRH-2 as they are (FIG. 3b). Log EC50 values and Emax values of GnRH-2 agonists are average values of experiments that were conducted independently three times. Ratio^a represents the ratio of EC50 values of other GnRH analogs based on EC50 values of GnRH-2.

The subject of assay [2] is Primate GnRH-2 receptor. The experiment in a line: Inhibition of GnRH-2-induced c-fos-luc luciferase activity, cells expressing Primate GnRH-2 receptor. The assay is classed as cell-based, Primates. Particulars: for effect on luciferase activity induced by GnRH-2: GnRH-2 and antagonist treated at the same time. The procedure:
Complimentary DNA (cDNA) for a Primate GnRH-2 receptor was obtained from a CV-1 cell genome. […] Plasmids having Primate GnRH-2 receptors where transfected into CV-1 cells. To assay the activity of the receptor, c-fos-luc where a luciferase gene is fused with a c-fos promoter was co-transfected as a probe gene. After 48 hours from transfection, the cells were treated with GnRH-2 agonists and then the activity of luciferase was assayed (Seong et al., Endocrinology vol 144 2003, 454-466). In the same manner as in 2-3 above, Primate GnRH-2 receptors were co-transfected along with c-fos-luc reporter genes, and after 48 hours, GnRH-2 and GnRH-2 antagonists were treated thereinto at the same time and then the effect of GnRH-2 antagonists was observed. […] Log IC50 value by antagonists is an average value of experiments that were conducted independently three times. ND stands for “not detected” which means that there are no inhibitory functions.

A further assay concerns bfGnRHR-2. The experiment in a line: Inhibition of GnRH-2-induced IP production, GH3 cells expressing bfGnRHR-2. The assay is classed as cell-based, bullfrog. Particulars: log of IC50 (negative values); half-maximal inhibition of IP production induced by GnRH-2 (1 nM, 10 nM elsewhere in the source). The protocol:
(§1) GH3 cell lines were obtained from the Cell Line Bank at the Cancer Research Center, Seoul National University College of Medicine, located in Seoul, Republic of Korea. The GH3 cell lines were infected with retroviruses comprising genes encoding bfGnRHR-1, bfGnRHR-2, and bfGnRHR-3 which are bullfrog GnRH receptors, and rat GnRHR, and cell lines expressing each of these receptors were obtained. The GH3 cells expressing bfGnRHR-1, bfGnRHR-2, bfGnRHR-3, and rat GnRHR were cultured on 12-well plates. After 24 hours, the cells were cultured again for 24 hours in a media containing no inositol, to which H^3-myoinositol was added. The resultant cells were washed with buffer A (140 mM NaCl, 20 mM HEPES, 4 mM KCl, 8 mM D-Glucose, 1 mM MgCl2, 1 mM CaCl2, 1 mg/ml BSA) and then cultured in buffer A containing 10 mM LiCl at 37°C. for 30 minutes. Thereafter, they were treated with GnRH having a suitable concentration, cultured at 37° C. for another 30 minutes, and then the media was eliminated. The cells were treated with 10 mM of ice-cold formic acid to terminate the reaction, and the cell extracts were mixed with Dowex anionic exchange resins. These resins were washed with distilled water, IP was extracted with 1 M ammonium formate/0.1 M formic acid, and cpm (count per minute) was determined.

The subject of assay [3] is bfGnRHR-3. The experiment in a line: Inhibition of GnRH-2-induced IP production, GH3 cells expressing bfGnRHR-3. The assay is classed as cell-based, bullfrog. The conditions noted are these: log of IC50 (negative values); half-maximal inhibition of IP production induced by GnRH-2 (1 nM, 10 nM elsewhere in the source). The procedure:
as §1

In assay [4] the test system is bfGnRHR-3. The experiment in a line: Ligand-receptor binding assay, I125-GnRH-2 competition, membranes of GH3 cells expressing bfGnRHR-3. The conditions noted are these: log of IC50 (negative values); competition with I125-GnRH-2, 4° C., 16 hours. Details: species or system bullfrog. The protocol:
To determine the binding affinity between GnRH and GnRH receptors, GnRH-2 was radiolabeled with I^125. The GH3 cells expressing bfGnRHR-1, bfGnRHR-2, bfGnRHR-3, and rat GnRHR constructed in Example 2-3 above were cultured on 100-mm dishes. After 48 hours, the cells were homogenized to obtain cellular membranes, which were then dissolved in binding buffer (40 mM Tris, pH 7.4, 2 mM MgCl2). 20 μg of membrane proteins were reacted with I^125-GnRH-2 at 4° C. for 16 hours. […] After the reaction was completed, 1^125-GnRH-2 bound to the receptors was filtered using a Brandel harvester, and cpm was measured using a γ-counter.
The GH3 cells expressing bfGnRHR-3 obtained from Example 6-1 above were treated with l^125GnRH-2 and GnRH-2 agonists and antagonists at various concentrations to determine the binding affinity of GnRH-2 agonists and antagonists toward the receptors.

“p-Glu-His-Trp-Ser-His-D-Lys-Trp-Tyr-Pro-Gly-NH2 ([pGlu]HWSH[dK]WYPG-NH2; SMILES NCCCC[C@@H](NC(=O)[C@H](Cc1c[nH]cn1)NC(=O)[C@H](CO)NC(=O)[C@H](Cc1c[nH]c2ccccc12)NC(=O)[C@H](Cc1c[nH]cn1)NC(=O)[C@@H]1CCC(=O)N1)C(=O)N[C@@H](Cc1c[nH]c2ccccc12)C(=O)N[C@@H](Cc1ccc(O)cc1)C(=O)N1CCC[C@H]1C(=O)NCC(N)=O) [[D-Lys^6]GnRH-2]”: the “Log EC50” value with Primate GnRH-2 receptor [1] is −8.57 ± 0.11.

As to `CC(=O)N[C@H](Cc1ccc2ccccc2c1)C(=O)N[C@H](Cc1ccc(Cl)cc1)C(=O)N[C@H](Cc1cccnc1)C(=O)N[C@@H](CO)C(=O)N[C@@H](Cc1c[nH]cn1)C(=O)N[C@H](CCCNC(N)=O)C(=O)N[C@@H](Cc1c[nH]c2ccccc12)C(=O)N[C@@H](Cc1ccc(O)cc1)C(=O)N1CCC[C@H]1C(=O)N[C@H](C)C(N)=O` [Trptorelix-2, Ac-D2Nal-(4Cl)D-Phe-D-3Pal-Ser-His-DCit-Trp-Tyr-Pro-DAla-NH2] (Ac-[d2Nal][dPhe(4-Cl)][d3Pal]SH[dCit]WYP[dA]-NH2), in the assay on Primate GnRH-2 receptor [2], the “effect on luciferase activity induced by GnRH-2” value (“effect … by GnRH-2” for short) was “reduced in a concentration-dependent manner”. The “Log IC50” value with Primate GnRH-2 receptor [2] (log of IC50 (negative values), reporter c-fos-luc, GnRH-2-induced luciferase, average of three experiments, ND = not detected, no inhibitory functions) is −6.19 ± 0.12.

On to “pGlu-His-Trp-Ser-His-D-Ala-Leu-Tyr-Pro-Gly-NH2 ([pGlu]HWSH[dA]LYPG-NH2; SMILES CC(C)C[C@H](NC(=O)[C@@H](C)NC(=O)[C@H](Cc1c[nH]cn1)NC(=O)[C@H](CO)NC(=O)[C@H](Cc1c[nH]c2ccccc12)NC(=O)[C@H](Cc1c[nH]cn1)NC(=O)[C@@H]1CCC(=O)N1)C(=O)N[C@@H](Cc1ccc(O)cc1)C(=O)N1CCC[C@H]1C(=O)NCC(N)=O) [[D-Ala^6, Leu^7]GnRH-2]”, for which the “Log EC50” value in the assay with Primate GnRH-2 receptor [1] was −7.95 ± 0.10.

Turning to [D-Ala^6]GnRH-1: the agonist of GnRH-1, in the assay on Primate GnRH-2 receptor [1] (compared with GnRH-2 or [D-Ala^6]GnRH-2), the “effect / sensitivity in luciferase activation” value is “very low sensitivity as compared with GnRH-2”. Also, the “Log EC50” value in the assay with Primate GnRH-2 receptor [1] is −6.38 ± 0.10.

For “pGlu-His-Trp-Ser-Leu-D-Ala-Trp-Tyr-Pro-Gly-NH2 ([pGlu]HWSL[dA]WYPG-NH2; SMILES CC(C)C[C@H](NC(=O)[C@H](CO)NC(=O)[C@H](Cc1c[nH]c2ccccc12)NC(=O)[C@H](Cc1c[nH]cn1)NC(=O)[C@@H]1CCC(=O)N1)C(=O)N[C@H](C)C(=O)N[C@@H](Cc1c[nH]c2ccccc12)C(=O)N[C@@H](Cc1ccc(O)cc1)C(=O)N1CCC[C@H]1C(=O)NCC(N)=O) [[Leu^5, D-Ala^6]GnRH-2]”, the “Log EC50” value in the assay on Primate GnRH-2 receptor [1] is given as −7.35 ± 0.12.

For “Ac-D2Nal-(4Cl)D-Phe-D-3Pal-Ser-Tyr-DCit-Trp-Leu-Pro-DAla-NH2 (Ac-[d2Nal][dPhe(4-Cl)][d3Pal]SY[dCit]WLP[dA]-NH2; SMILES CC(=O)N[C@H](Cc1ccc2ccccc2c1)C(=O)N[C@H](Cc1ccc(Cl)cc1)C(=O)N[C@H](Cc1cccnc1)C(=O)N[C@@H](CO)C(=O)N[C@@H](Cc1ccc(O)cc1)C(=O)N[C@H](CCCNC(N)=O)C(=O)N[C@@H](Cc1c[nH]c2ccccc12)C(=O)N[C@@H](CC(C)C)C(=O)N1CCC[C@H]1C(=O)N[C@H](C)C(N)=O) [Trptorelix-3]”, the “effect … by GnRH-2” value with Primate GnRH-2 receptor [2] is recorded as “no effect”.

Turning to `CC(=O)N[C@H](Cc1ccc2ccccc2c1)C(=O)N[C@H](Cc1ccc(Cl)cc1)C(=O)N[C@H](Cc1cccnc1)C(=O)N[C@@H](CO)C(=O)N[C@@H](Cc1ccc(O)cc1)C(=O)N[C@H](CCCNC(N)=O)C(=O)N[C@@H](CC(C)C)C(=O)N[C@@H](CCCNC(=N)N)C(=O)N1CCC[C@H]1C(=O)N[C@H](C)C(N)=O` [Cetrorelix, Ac-D-2Nal-(4Cl)-D-Phe-D-3Pal-Ser-Tyr-D-Cit-Leu-Arg-Pro-D-Ala-NH2, reference compound] (Ac-[d2Nal][dPhe(4-Cl)][d3Pal]SY[dCit]LRP[dA]-NH2), the figures for the “Log IC50” value with bfGnRHR-2 and in the assay with bfGnRHR-3 [3] were −6.43 ± 0.11 and −6.28 ± 0.13, respectively. For the same molecule, the “effect … by GnRH-2” value in the assay with Primate GnRH-2 receptor [2] was “no effect”. In addition, in the assay on bfGnRHR-3 [4], the “Binding affinity (log IC50 value)” value is reported as −7.11 ± 0.08.

“pGlu-His-Trp-Ser-His-D-Ala-Tyr-Trp-Pro-Gly-NH2 ([pGlu]HWSH[dA]YWPG-NH2; SMILES C[C@@H](NC(=O)[C@H](Cc1c[nH]cn1)NC(=O)[C@H](CO)NC(=O)[C@H](Cc1c[nH]c2ccccc12)NC(=O)[C@H](Cc1c[nH]cn1)NC(=O)[C@@H]1CCC(=O)N1)C(=O)N[C@@H](Cc1ccc(O)cc1)C(=O)N[C@@H](Cc1c[nH]c2ccccc12)C(=O)N1CCC[C@H]1C(=O)NCC(N)=O) [[D-Ala^6, Tyr^7, Trp^8]GnRH-2]”: the “Log EC50” value with Primate GnRH-2 receptor [1] is listed as −7.57 ± 0.13.

Take “pGlu-His-Trp-Ser-Tyr-D-Ala-Trp-Leu-Pro-Gly-NH2 ([pGlu]HWSY[dA]WLPG-NH2; SMILES CC(C)C[C@H](NC(=O)[C@H](Cc1c[nH]c2ccccc12)NC(=O)[C@@H](C)NC(=O)[C@H](Cc1ccc(O)cc1)NC(=O)[C@H](CO)NC(=O)[C@H](Cc1c[nH]c2ccccc12)NC(=O)[C@H](Cc1c[nH]cn1)NC(=O)[C@@H]1CCC(=O)N1)C(=O)N1CCC[C@H]1C(=O)NCC(N)=O) [[Tyr^5, D-Ala^6, Leu^8]GnRH-2]”: in the assay on Primate GnRH-2 receptor [1], the “Log EC50” value is −7.90 ± 0.24.
